The text below walks through data of patent US20250092058A1 (priority 2018, published 2025).

The subject of data set [1] is survivin, Mcl-1, XIAP, cIAP2. The data set is described as follows: Western blots of anti-/pro-apoptotic proteins in PANC1 and Mia2. Type of data set: cell-based, human. The conditions noted are these: 16 h to 48 h, dose-dependent.
Protocol: Western blotting/Immunoblotting. […] Fifty μg total protein from each sample were heated at 95° C. for 5 minutes after mixing with equal volume of 2×SDS loading buffer. Samples were separated on 12-15% SDS-polyacrylamide gel electrophoresis (SDS-PAGE) gels and electrotransferred to Pure Nitrocellulose Membranes (Bio-Rad, Hercules, CA). The membrane was then blocked in 5% skim milk in TBS-T buffer (20 mM Tris/HCl pH 7.5, 0.137 M NaCl, and 0.1% Tween 20) at room temperature for 2-3 hours. Next, the membrane was incubated with different primary antibodies in TBS-T containing 5% BSA overnight at 4° C. in the range of dilutions from 1:500 to 1:2000. After washing with TBS-T, the membrane was incubated in TBS-T buffer containing 5% skim milk and corresponding secondary antibody (1:5000) for 45-60 minutes at room temperature with shaking. Protein of interest was detected using Western Lightning Plus—ECL (Perkin Elmer, Waltham, MA) and visualized by various times (3-120 seconds) of exposure. Actin was detected as the internal control to normalize total protein loading for each sample.
For a further data set, the system named is PANC1 and Mia2 cells. The data set is described as follows: Western blots of caspase-3 activation and PARP cleavage. Type of data set: cell-based, human. To be noted: 24 h, 10-500 nM. How it is done:
Western blotting/Immunoblotting. […] Fifty μg total protein from each sample were heated at 95° C. for 5 minutes after mixing with equal volume of 2×SDS loading buffer. Samples were separated on 12-15% SDS-polyacrylamide gel electrophoresis (SDS-PAGE) gels and electrotransferred to Pure Nitrocellulose Membranes (Bio-Rad, Hercules, CA). […] Next, the membrane was incubated with different primary antibodies in TBS-T containing 5% BSA overnight at 4° C. in the range of dilutions from 1:500 to 1:2000. After washing with TBS-T, the membrane was incubated in TBS-T buffer containing 5% skim milk and corresponding secondary antibody (1:5000) for 45-60 minutes at room temperature with shaking. Protein of interest was detected using Western Lightning Plus—ECL (Perkin Elmer, Waltham, MA) and visualized by various times (3-120 seconds) of exposure. Actin was detected as the internal control to normalize total protein loading for each sample.
Next, we determined whether FL118-mediated inhibition of antiapoptotic proteins and induction of pro-apoptotic proteins shown in FIG. 1 would be accompanied by induction of apoptosis and cell killing.

In data set [2] the test system is CD44 stem cell marker-positive PANC1 cells. The data set is described as follows: CD44-positive PANC1 colony formation. The class given is cell-based, human. How it is done:
CD44 positive cell sorting and CD44-positive cell colony formation. CD44 positive (CD44+) cells were purified (sorted out) using fluorescence activated cell sorting (FACS). FITC-conjugated mouse anti-human CD44 was used in FACS purification of CD44+ PANC1 cells. Briefly, PANC1 cells were harvested by using 0.25% trypsin/0.02% EDTA. After re-suspension of the cells in cell-culture media, the cells were counted and washed in PBS with 2% FBS and collected by centrifugation. Add 10 μL FITC-CD44 antibody to 1 ml PBS containing 1 million cells and 2% of FBS for 30 minutes on ice. Following the antibody labeling, PANC1 cells were washed in PBS with 2% BSA before flow cytometric analysis was carried out on a BD FACSAria™ III cell sorter (BD Science, USA). […] Colonies were fixed, stained with crystal violet solution and images were taken before counting colonies on day 12. The experimental results were expressed as the mean±SD. The statistical significance of differences was determined by Student's t-test between two groups.
To further confirm these findings, we alternatively used the typical matrigel-based CSC sphere formation assay which is know to more closely mimic in vivo situations. In this assay only drug resistant stem-like cancer cells are able to form spheres. […] We performed colony formation of CD44 stem cell marker-positive cells using the stem-cell culture condition. […]

For data set [3] the following is noted: calculated from SCID mouse MTD.
Another data set deals with A2780CP70-GFPcODC cells. Briefly: GFPcODC drug-resistant cell tracking, A2780CP. The conditions noted are these: 10 nM and 100 nM. Type of data set: cell-based, human. The text has this:
Generation of A2780-GFPcODC, A2780CP-GFPcODC and PANC1GFPcODC cells and fluorescence microscopy to detect stem-like and drug resistant green cells. The retroviral expression vector pQCXIN-ZsGreen-cODC (ornithine decarboxylase), containing a green fluorescence marker, was kindly provided by Dr. Frank Pajonk (Vlashi E, et al., In vivo imaging, tracking, and targeting of cancer stem cells. J Natl Cancer Inst. 2009; 101: 350-9). The retroviral particles collected from packaging cells that transfected with the above vector were infected into A2780, A2780CP and PANC1 cells, respectively. The transfected cell pool was used for experiments. The transfected cells were treated with and without cisplatin or FL118 alone or in combination for defined times. Cell images were acquired digitally using the Olympus IX73 Inverted Score s (Olympus). Percentages of living cells were obtained from the average of the total cells counted from 10 microscopic fields.
To test this, we used a novel approach developed in Dr. Pajonk's lab for the live tracking of drug resistant cells (Vlashi E, et al., In vivo imaging, tracking, and targeting of cancer stem cells. J Natl Cancer Inst. 2009; 101: 350-9). This approach takes advantage of reduced 26S proteasome activity of drug resistant cells. […]

A further data set deals with HeLa. The class given is cell-based, human. To be noted: Table 13; MTT; HeLa cervical cancer.
The subject of a further data set is HepG2. The class given is cell-based, human. The conditions noted are these: Table 13; MTT; HepG2 liver cancer.

Consider `CC[C@@]1(O)C(=O)OCc2c1cc1n(c2=O)Cc2cc3cc4c(cc3nc2-1)OCO4` [FL118, 10,11-methylenedioxy-camptothecin], for which the “expression of antiapoptotic proteins (XIAP, cIAP2, Mcl-1 or survivin)” value in data set [1] is reported as “differentially modulates the expression of antiapoptotic proteins”. Also, the “caspase-3 activation and PARP cleavage” value in the data set with PANC1 and Mia2 cells is “strongly induces caspase-3 activation and PARP cleavage”. Moreover, the colony formation result in data set [2] (1 nM) is listed as “significantly inhibited colony formation”; in data set [2] (10 and 100 nM), “completely eliminate colony formation”. The “calculated FL118 MTD for dogs” value in data set [3] is 2 mg/kg. The “decrease of GFPcODC-positive drug-resistant cell population” value in the data set with A2780CP70-GFPcODC cells is recorded as “more than 50%”. Further, the IC50 with HeLa worked out at 34.7 ± 9.9 nM; with HepG2, 68.5 ± 6.7 nM.
